Measurements reported in patent US20250136548A1, “FUNCTIONALIZED ALKYLAMINES” (Terran Biosciences Inc., priority 2022, published 2025).

Tests used:
5-HT2A receptor = molecular target: T1, 5-HT2A receptor (Homo sapiens, UniProt P28223); assay: Calcium mobilization assay, agonist format, 5-HT2A receptor; format: cell-based; settings: agonist mode, % activity relative to MAX control ligand (5-HT positive control), read-out: 5-HT2A agonist efficacy @ 1 μM
T1 construct: host or cells: unnamed cell lines
Procedure: (§1) • Protocol: in vitro testing at select 5-hydroxytryptamine (5-HT; serotonin) receptors was conducted.
(§2) Assay Design: Calcium Mobilization
(§3) • 1. Cell lines were expanded from freezer stocks according to standard procedures. • 2. Cells were seeded in a total volume of 20 μL into black-walled, clear-bottom, Poly-D-lysine coated 384-well microplates and incubated at 37° C. for the appropriate time prior to testing.
(§4) • 1. Assays were performed in 1×Dye Loading Buffer consisting of 1× Dye, 1× Additive A and 2.5 mM Probenecid in HBSS/20 mM Hepes. Probenicid was prepared fresh. • 2. Cells were loaded with dye prior to testing. Media was aspirated from cells and replaced with 20 μL Dye Loading Buffer. • 3. Cells were incubated for 30-60 minutes at 37° C.
(§5) • 1. For agonist determination, cells were incubated with sample to induce response. • 2. After dye loading, cells were removed from the incubator and 10 μL HBSS/20 mM Hepes was added. 3× vehicle was included in the buffer when performing agonist dose curves to define the EC80 for subsequent antagonist assays. Cells were incubated for 30 minutes at room temperature in the dark to equilibrate plate temperature. • 3. Intermediate dilution of sample stocks was performed to generate 4× sample in assay buffer. • 4. Compound agonist activity was measured on a FLIPR Tetra (MDS). Calcium mobilization was monitored for 2 minutes and 10 μL 4× sample in HBSS/20 mM Hepes was added to the cells 5 seconds into the assay.
(§6) • 1. Compound activity was analyzed using CBIS data analysis suite (ChemInnovation, CA). • 2. For agonist mode assays, percentage activity is calculated using the following formula:
(§7) % Activity=100%×(mean RFU of test sample−mean RFU of vehicle control)/(mean MAX RFU control ligand −mean RFU of vehicle control). • 3. For positive allosteric mode assays, percentage modulation was calculated using the following formula: […]

5-HT2B receptor = molecular target: T2, 5-HT2B receptor (Homo sapiens, UniProt P41595); assay: Calcium mobilization assay, agonist format, 5-HT2B receptor; format: cell-based; settings: agonist mode, % activity relative to MAX control ligand (5-HT positive control), read-out: 5-HT2B agonist efficacy @ 1 μM
T2 construct: host or cells: unnamed cell lines
Procedure: as §1, §2, §3, §4, §5, §6, §7

T2 sequence (P41595 whole entry): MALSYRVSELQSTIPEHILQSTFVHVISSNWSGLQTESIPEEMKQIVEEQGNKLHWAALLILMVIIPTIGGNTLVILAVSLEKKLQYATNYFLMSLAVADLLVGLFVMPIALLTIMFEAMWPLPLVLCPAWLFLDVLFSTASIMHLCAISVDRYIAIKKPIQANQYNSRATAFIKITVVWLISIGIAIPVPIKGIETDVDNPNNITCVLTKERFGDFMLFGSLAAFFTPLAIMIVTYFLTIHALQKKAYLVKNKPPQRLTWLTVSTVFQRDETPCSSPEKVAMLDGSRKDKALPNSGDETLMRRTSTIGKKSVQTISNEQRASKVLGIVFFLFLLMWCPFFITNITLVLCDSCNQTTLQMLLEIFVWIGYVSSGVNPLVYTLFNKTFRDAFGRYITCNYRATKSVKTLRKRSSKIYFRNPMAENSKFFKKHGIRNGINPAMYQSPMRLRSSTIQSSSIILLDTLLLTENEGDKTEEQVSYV
T1 sequence (P28223 whole entry): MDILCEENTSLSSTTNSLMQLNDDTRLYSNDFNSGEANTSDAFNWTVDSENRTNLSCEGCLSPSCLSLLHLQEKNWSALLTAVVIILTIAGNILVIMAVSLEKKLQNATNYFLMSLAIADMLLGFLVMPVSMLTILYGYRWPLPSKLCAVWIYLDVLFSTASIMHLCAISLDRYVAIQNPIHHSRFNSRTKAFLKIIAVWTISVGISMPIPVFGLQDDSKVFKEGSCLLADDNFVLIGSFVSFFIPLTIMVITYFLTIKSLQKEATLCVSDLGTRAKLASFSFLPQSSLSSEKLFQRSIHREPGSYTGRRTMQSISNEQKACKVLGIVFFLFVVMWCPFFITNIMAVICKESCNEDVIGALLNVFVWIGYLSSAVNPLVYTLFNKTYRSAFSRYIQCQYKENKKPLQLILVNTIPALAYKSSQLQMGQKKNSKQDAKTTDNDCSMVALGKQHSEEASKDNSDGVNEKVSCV

| Compound | activation at 1 µM (5-HT2A receptor) [%] | activation at 1 µM (5-HT2B receptor) [%] |
| --- | --- | --- |
| CC1(O)CCN(CCc2c[nH]c3cc(F)c(F)cc23)C1 (stereo not shown) [1-[2-(5,6-difluoro-1H-indol-3-yl)ethyl]-3-methyl-pyrrolidin-3-ol] | 1.9 | -1 |
| OC1CCN(CCn2ccc3ccc(F)cc32)C1 (stereo not shown) [1-[2-(6-Fluoroindol-1-yl)ethyl]pyrrolidin-3-ol] | 2.5 | -2.8 |
| CC1(O)CCN(CCn2ccc3cc(F)ccc32)C1 (stereo not shown) [1-[2-(5-Fluoroindol-1-yl)ethyl]-3-methyl-pyrrolidin-3-ol] | -0.3 | -1.1 |
| CN(CCn1ccc2ccc(F)cc21)CCS(C)(=O)=O [2-(6-Fluoroindol-1-yl)-N-methyl-N-(2-methylsulfonylethyl)ethanamine] | -1.2 | -1.3 |
| CN(CCO)CCn1ccc2cc(F)ccc21 [2-[2-(5-Fluoroindol-1-yl)ethyl-methyl-amino]ethanol] | -0.2 | -1.4 |
| CN(CCn1ccc2cc(F)c(F)cc21)CCS(C)(=O)=O [2-(5,6-Difluoroindol-1-yl)-N-methyl-N-(2-methylsulfonylethyl)ethanamine] | -0.5 | -1.3 |
| CN(CCO)CCc1c[nH]c2ccc(F)cc12 [2-[2-(5-Fluoro-1H-indol-3-yl)ethyl-methyl-amino]ethanol] | 47.1 | 1.2 |
| CN(CCO)CCn1ccc2cc(F)c(F)cc21 [2-[2-(5,6-Difluoroindol-1-yl)ethyl-methyl-amino]ethanol] | 6.2 | 0.1 |
| COc1ccc2c3c([nH]c2c1)CCN(C)CC3 [TBG, 8-methoxy-3-methyl-1,2,3,4,5,6-hexahydroazepino[4,5-b]indole, reference compound] | 18.2 | -2.2 |
| CC1(O)CCN(CCn2ccc3cc(F)c(F)cc32)C1 (stereo not shown) [1-[2-(5,6-Difluoroindol-1-yl)ethyl]-3-methyl-pyrrolidin-3-ol] | -0.1 | -2.5 |
| OC1CCN(CCc2c[nH]c3ccc(F)cc23)C1 (stereo not shown) [1-[2-(5-fluoro-1H-indol-3-yl)ethyl]pyrrolidin-3-olethanamine] | 46 | -0.7 |
| CC1(O)CCN(CCc2c[nH]c3ccc(F)cc23)C1 (stereo not shown) [1-[2-(5-fluoro-1H-indol-3-yl)ethyl]-3-methyl-pyrrolidin-3-ol] | 7.5 | -1.5 |
| CC1(O)CCN(CCn2ccc3ccc(F)cc32)C1 (stereo not shown) [1-[2-(6-Fluoroindol-1-yl)ethyl]-3-methyl-pyrrolidin-3-ol] | 0 | -1.3 |
| OC1CCN(CCn2ccc3cc(F)c(F)cc32)C1 (stereo not shown) [1-[2-(5,6-Difluoroindol-1-yl)ethyl]pyrrolidin-3-ol] | 2 | -0.7 |
| COc1ccc2c3c([nH]c2c1)CCNCC3 [8-methoxy-1,2,3,4,5,6-hexahydroazepino[4,5-b]indole, reference compound] | 71.7 | -0.8 |
| CN(CCc1c[nH]c2ccc(F)cc12)CCS(C)(=O)=O [2-(5-fluoro-1H-indol-3-yl)-N-methyl-N-(2-methylsulfonylethyl)ethanamine] | 27.3 | -0.5 |
| CN(CCn1ccc2cc(F)ccc21)CCS(C)(=O)=O [2-(5-Fluoroindol-1-yl)-N-methyl-N-(2-methylsulfonylethyl)ethanamine] | -0.8 | -2.7 |
| CN(CCO)CCn1ccc2ccc(F)cc21 [2-[2-(6-Fluoroindol-1-yl)ethyl-methyl-amino]ethanol] | 8.3 | 0.2 |
| OC1CCN(CCn2ccc3cc(F)ccc32)C1 (stereo not shown) [1-[2-(5-Fluoroindol-1-yl)ethyl]pyrrolidin-3-ol] | -0.2 | -1.2 |
| CC1(O)CCN(CCc2c[nH]c3cc(F)ccc23)C1 (stereo not shown) [1-[2-(6-fluoro-1H-indol-3-yl)ethyl]-3-methyl-pyrrolidin-3-ol] | -0.3 | -1.1 |
